Experimental data taken from patent US11365194B2, “Analgesic drug using PAC1 receptor antagonistic drug” (KAGOSHIMA UNIVERSITY, priority 2017, dated 2022).

How the values were obtained:
PAC1 receptor = molecular target: T1, PAC1 receptor (Homo sapiens, UniProt P41586); conditions: Non Patent Literature 3; cited from earlier work
T1 sequence (P41586 21-468): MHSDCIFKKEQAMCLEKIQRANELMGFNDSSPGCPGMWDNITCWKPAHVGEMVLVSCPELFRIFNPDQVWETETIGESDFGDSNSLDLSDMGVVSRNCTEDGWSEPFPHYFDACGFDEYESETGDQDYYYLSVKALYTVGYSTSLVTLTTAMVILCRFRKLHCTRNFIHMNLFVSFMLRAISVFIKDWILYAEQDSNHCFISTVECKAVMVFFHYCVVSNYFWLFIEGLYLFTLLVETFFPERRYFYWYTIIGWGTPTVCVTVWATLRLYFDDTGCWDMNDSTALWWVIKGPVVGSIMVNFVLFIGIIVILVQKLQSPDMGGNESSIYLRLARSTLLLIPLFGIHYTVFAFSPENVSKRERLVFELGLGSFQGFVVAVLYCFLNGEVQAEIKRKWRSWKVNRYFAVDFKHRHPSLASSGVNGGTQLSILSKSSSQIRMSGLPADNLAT

[1] = test system: mechanical allodynia induced by PACAP intrathecal administration; test: Mechanical allodynia induced by PACAP intrathecal administration (von Frey test); format: in vivo, mouse; conditions: 100 pmol, simultaneous i.t.; FIG. 5C
Experimental: When single i.t. administration of PACAP (100 pmol/5 L) to mouse was performed, mechanical stimulus sensitive phenomenon (mechanical allodynia) occurred over a long period of time (for at least three months after the administration) (Non Patent Literature 1). […] The mechanical sensitive phenomenon induced by PACAP was not suppressed in an example in which a solvent (VEH: 0.2% DMSO-containing artificial cerebrospinal fluid) was used instead of the compounds.
(§1) Male ddY mice (6 to 12 weeks old) were used, and the threshold to a mechanical stimulus was evaluated by the vonFrey test. Specifically, the 50% withdrawal reflex threshold (Threshold) was calculated in accordance with the method of Chaplan et al. (Chaplan et al., J. Neurosci. Meth. 53, 55-63, 1994). Each compound was dissolved in 99.7% DMSO, and then the resulting solution was diluted with an artificial cerebrospinal fluid for preparation (final concentration of DMSO was 0.2%).

[2] = test system: mechanical allodynia induced by spinal nerve injury; test: Spinal nerve ligation (SNL) model, i.t. administration on 14th day, mechanical allodynia; format: in vivo, mouse
Experimental: as §1
Spinal nerve ligation (SNL) models in which the fourth lumbar cord spinal nerves of male ddY (6 to 12 weeks old) were ligated with silk thread were used. The i.t. administration of a solvent (VEH: 10% DMSO-containing saline), PA-8, the compound 2j or the compound 2o (FIG. 9A), or PA-9 or the compound 3d (FIG. 9B) was performed on the 14th day after the operation. The method of causing a mechanical stimulus is the same as that of Example 5, and data were acquired for 24 hours after i.t. administration over time.

[3] = Non Patent Literature 4; cited from earlier work
[4] = molecular target: T2, mouse PAC receptor-expressing CHO cell (PAC1/CHO cell) (Mus musculus, UniProt P70205); test: CREB phosphorylation by PACAP stimulus, Western blot, PAC1/CHO cell; format: cell-based; conditions: PAC1/CHO cell; compound 10 μM to 10 nM, 30 minutes before 1 nM PACAP
T2 construct: expressed in transfected cells; host or cells: CHO cells
T2 sequence (P70205 21-496): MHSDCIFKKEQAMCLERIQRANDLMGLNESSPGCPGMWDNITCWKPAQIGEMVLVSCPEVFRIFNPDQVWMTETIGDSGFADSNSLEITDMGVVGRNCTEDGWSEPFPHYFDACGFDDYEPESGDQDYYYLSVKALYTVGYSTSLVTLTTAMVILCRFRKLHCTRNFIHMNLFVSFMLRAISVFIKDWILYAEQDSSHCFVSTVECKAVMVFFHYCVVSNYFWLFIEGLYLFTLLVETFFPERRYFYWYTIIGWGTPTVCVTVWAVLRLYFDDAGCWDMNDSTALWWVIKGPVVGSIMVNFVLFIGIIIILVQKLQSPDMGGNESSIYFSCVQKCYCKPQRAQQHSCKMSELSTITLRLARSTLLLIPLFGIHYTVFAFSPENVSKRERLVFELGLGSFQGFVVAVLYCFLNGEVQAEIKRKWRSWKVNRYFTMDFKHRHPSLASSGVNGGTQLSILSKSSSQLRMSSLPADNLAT
Experimental: The effect of each compound on the phosphorylation of CREB (cAMP-responsive element-binding protein) produced by a PACAP stimulus was examined by Western blot analysis using an anti-phosphorylated CREB (pCREB) antibody with a mouse PAC receptor-expressing CHO cell (PAC1/CHO cell) and a mouse VPAC1 receptor-expressing CHO cell (VPAC1/CHO cell).
Specifically, treatment with a compound (PA-8, PA-9, compounds 2j, 20 and 3d) at 10 μM to 10 nM or a solvent therefor (VEH: 0.1% DMSO-containing phosphate buffer solution) was performed for 30 minutes, 1 nM PACAP was then added, and protein was recovered within 30 minutes after a PACAP stimulus.

O=C(NCCc1c[nH]cn1)C1CC(=O)N(c2n[nH]c3ccccc23)C1 (stereo not drawn) [PA-9, reference compound]
PAC1 receptor antagonistic action (PAC1 receptor): have PAC1 receptor antagonistic action
suppression of long-term mechanical allodynia induced by PACAP [1]: strongly suppressed
mechanical threshold 24 hours after the administration ([2]; 100 pmol i.t.): maintained the mechanical threshold highly significantly
anti-mechanical allodynia effect ([2]; 100 pmol i.t. on 14th day after operation): anti-mechanical allodynia effect equivalent to PA-8 and the compound 2j
analgesic effect [3]: have analgesic effect
suppression of CREB phosphorylation by PACAP (1 nM) [4]: suppressed CREB phosphorylation by PACAP (1 nM) depending on the concentration
